Each molecule was assayed against T1, CDK2/Cyclin E complex (Homo sapiens, UniProt P24941) (assay: CDK2/Cyclin E fluorescence-based microfluidic mobility shift assay (CDK2 Biochemical Caliper Assay)). Details: read-out: Biochemical CDK2/CyclinE Caliper IC50.
T1 construct: purchased Eurofins 14-475
Procedure, shortened: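 Wild-type CDK2/Cyclin E was preincubated with compound and ATP for 30 min at RT before the 5-FAM-QSPKKG peptide was added. Final concentrations were 0.1 nM enzyme, 2000 uM ATP, 1.5 uM peptide and 1% DMSO. After 20 hr at RT and EDTA stop, substrate conversion was read by microfluidic mobility shift over an 11-point, 3-fold dilution series.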

First: Cc1cc(C(=O)Nc2cc([C@H]3CC[C@@H](OC(=O)NC(C)C)C3)[nH]n2)on1 [Example 17]
Second: Cc1cc(CC(=O)Nc2cc([C@@H]3CC[C@H](NC(=O)NC(C)C)C3)[nH]n2)on1 (single isomer, unassigned) [Example 102]
The IC50 of the first is lower: no more than 100 nM for the first, 1000 to 100000 nM for the second.

`CC1(NC(=O)O[C@@H]2CC[C@H](c3cc(NC(=O)Cc4ccccc4)n[nH]3)C2)CC1` [Example 7] and `CC1(NC(=O)O[C@H]2CC[C@@H](c3cc(NC(=O)Cc4ccccc4)n[nH]3)C2)CC1` [Example 9] cannot be ordered by IC50: no more than 100 nM for the first, no more than 100 nM for the second.

First: COCc1cc(C(=O)Nc2cc([C@@H]3CC[C@H](OC(=O)N(C)C(C)C)C3)[nH]n2)n(C)n1 [Example 8]
Second: Cc1cc(CC(=O)Nc2cc([C@H]3CC[C@@H](C(=O)NC(C)C)CC3)[nH]n2)on1 [Example 55]
The IC50 of the first is lower: no more than 100 nM for the first, 1000 to 100000 nM for the second.

Each molecule was assayed against target tagged with nanoLuciferase in 293-NB2 cells (Homo sapiens, UniProt P24941) (assay: nanoBRET TE Intracellular Kinase Assay (Cell nanoBRET Assay)). Details: not given.
Format: cell-based
Method: Compounds described herein were also tested in a nanoBRET TE Intracellular Kinase Assay. Test compounds were prepared in a DMSO stock solution. 45 uL of stock solution was transferred to a 384 well plate (Greiner, 781201), and a 3-fold 11-point dilution was performed. 293-NB2 cells expressing target tagged with nanoLuciferase were diluted in cell growth media (DMEM+10% FBS+1% Pen/Strep media) and a 40 uL cell solution of 7.5E4 cells/mL was seeded in a separate 384 well cell culture plate and incubated overnight at 37° C./5% CO2/100% humidity. […] 80 nL of each concentration of compound was transferred from the compound plate to a corresponding well in the cell culture plate by Echo550 liquid handler. The plates were incubated for 2 hrs at 37° C./5% CO2/100% humidity. […] Chemiluminescence was then read on an EnVision reader (PerkinElmer).

`Cc1cc(C(=O)Nc2cc([C@H]3CC[C@@H](OC(=O)NC(C)C)C3)[nH]n2)on1` [Example 17] and `Cc1cc(CC(=O)Nc2cc([C@@H]3CC[C@H](NC(=O)NC(C)C)C3)[nH]n2)on1` (single isomer, unassigned) [Example 102] fall in the same range of IC50: 1000 to 100000 nM for the first, 1000 to 100000 nM for the second.

`CC1(NC(=O)O[C@@H]2CC[C@H](c3cc(NC(=O)Cc4ccccc4)n[nH]3)C2)CC1` [Example 7] and `CC1(NC(=O)O[C@H]2CC[C@@H](c3cc(NC(=O)Cc4ccccc4)n[nH]3)C2)CC1` [Example 9] cannot be ordered by IC50: no more than 100 nM for the first, no more than 100 nM for the second.

Compared with `COCc1cc(C(=O)Nc2cc([C@@H]3CC[C@H](OC(=O)N(C)C(C)C)C3)[nH]n2)n(C)n1` [Example 8], `Cc1cc(CC(=O)Nc2cc([C@H]3CC[C@@H](C(=O)NC(C)C)CC3)[nH]n2)on1` [Example 55] is higher in IC50: 100 to 250 nM for the first, 1000 to 100000 nM for the second.

Each molecule was assayed on CDK2-independent (SKOV3, COV504, COV644) versus CDK2-dependent (COV318, OVCAR3, HCC1569) cell lines (assay: Cell proliferation selectivity assay (CyQUANT Direct Cell Proliferation Assay)). Details: mean of IC50 ratios between each CDK2-independent versus CDK2-dependent cell line; 120 hours incubation.
Format: cell-based
Method: Compounds described herein were also tested in cell proliferation selectivity assays. OVCAR3, HCC1569, and SKOV3 cell lines were obtained from ATCC and cultured as recommended by supplier. COV318, COV504, and COV644 cell lines were obtained from Sigma-Aldrich and were cultured as recommended by supplier. The genetic background and dependency of each cell line was determined using publicly available databases: cBioPortal and DepMap. […] All six cell lines are CDK1-dependent given that CDK1 is an essential gene. Proliferation assay was carried out by seeding cells into 384-well plates at predetermined density (ranging from 150 to 1500 cells per well) in corresponding culture media, followed by brief centrifugation at 1000×g, and culturing cells for 24 hours at 37° C., 5% CO2. The following day, compounds were serially diluted (1l-point, 3-fold dilution scheme with 20 μM as top concentration) and dispensed directly onto cells using Echo 555 acoustic liquid handler (Labcyte). The cells were incubated with the compounds at 37° C., 5% CO2 for 120 hours. Relative number of viable cells in each well was determined using CyQUANT Direct Cell Proliferation Assay Kit (Invitrogen) per manufacturers protocol. The plates were read on EnVision 2105 multimode plate reader (Perkin Elmer) using FITC filter set. Dose response curve fitting and IC50 calculation was done using Genedata Screener software. Proliferation selectivity (i.e. selectivity index) for individual compound was derived as a mean of its IC50 ratios between each CDK2-independent versus CDK2-dependent cell line.

In order of falling “Proliferation selectivity Index” value:
1. CC[C@H](C)NC(=O)O[C@H]1CO[C@@H](c2cc(Nc3ccc4c(n3)C(C)(C)NC4=O)n[nH]2)C1 [Example I-1]  54.25
2. COCc1cc2c(Nc3cc([C@H]4C[C@@H](OC(=O)N5CCC5(C)C)CO4)[nH]n3)nccn2n1 [Example I-2]  51.61
3. C[C@H](NC(=O)O[C@H]1CO[C@@H](c2cc(Nc3ccc4c(n3)C(C)(C)NC4=O)n[nH]2)C1)C1CC1 [Example I-3]  45.44
4. CC(C)NC(=O)O[C@@H]1CC[C@H](c2cc(Nc3ncnc4ncccc34)n[nH]2)C1 (single isomer, unassigned) [Example I-4]  45.05
5. CC1(NC(=O)O[C@H]2CO[C@@H](c3cc(Nc4ccn5nccc5n4)n[nH]3)C2)CC1 [Example I-5]  32.74
6. C=C(C)c1ccncc1O[C@H]1CC[C@@H](c2cc(NC(=O)Cc3cc(C)no3)n[nH]2)C1 [Example I-6]  31.48
7. CC1(NC(=O)O[C@@H]2CO[C@H](c3cc(Nc4nccc5nccn45)n[nH]3)C2)CC1 [Example I-7]  27.71
8. CC1(NC(=O)O[C@H]2CO[C@@H](c3cc(Nc4ccc5nccn5n4)n[nH]3)C2)CC1 [Example I-8]  27.56
9. COCc1cc2c(Nc3cc([C@H]4C[C@@H](OC(=O)N[C@@H](C)C(F)(F)F)CO4)[nH]n3)nccn2n1 [Example I-9]  24.63
10. COCc1cc2c(Nc3cc([C@H]4CC[C@@H](OC(=O)NC(C)C)C4)[nH]n3)nccn2n1 (single isomer, unassigned) [Example I-10]  24.36
11. CC(C)NC(=O)O[C@@H]1CC[C@H](c2cc(Nc3nccc4nccn34)n[nH]2)C1 (single isomer, unassigned) [Example I-11]  24.26
12. COCC1(NC(=O)O[C@@H]2CO[C@H](c3cc(NC(=O)c4cc(COC(F)(F)F)nn4C)n[nH]3)C2)CC1 [Example I-12]  23.98
13. C[C@H](NC(=O)O[C@@H]1CO[C@H](c2cc(NC(=O)c3cc(COC(F)(F)F)nn3C)n[nH]2)C1)C1CC1 [Example I-13]  23.74
14. Cn1ncc2cnc(Nc3cc([C@H]4C[C@@H](OC(=O)NC5(C)CC5)CO4)[nH]n3)cc21 [Example I-14]  23.53
15. COCc1cc2c(Nc3cc([C@H]4C[C@@H](OC(=O)NC5(CC(F)(F)F)CC5)CO4)[nH]n3)nccn2n1 [Example I-15]  23.43
16. COCc1nc2ccnc(Nc3cc([C@H]4C[C@@H](OC(=O)NC(C)C)CO4)[nH]n3)c2s1 [Example I-16]  22.96
17. CC(C)NC(=O)O[C@@H]1CC[C@H](c2cc(Nc3nccn4nccc34)n[nH]2)C1 (single isomer, unassigned) [Example I-17]  21.85
18. Cn1nc(COC(F)(F)F)cc1C(=O)Nc1cc([C@@H]2C[C@H](OC(=O)NC3(C)CC3)CO2)[nH]n1 [Example I-18]  21.63
19. COCc1nc2ccnc(Nc3cc([C@@H]4CC[C@H](OC(=O)NC(C)C)C4)[nH]n3)c2s1 (single isomer, unassigned) [Example I-19]  20.52
20. CC(C)NC(=O)O[C@H]1CC[C@@H](c2cc(Nc3ncnc4ncccc34)n[nH]2)C1 (single isomer, unassigned) [Example I-20]  20.15
21. Cc1cc(CC(=O)Nc2cc([C@@H]3CC[C@H](Oc4nscc4C4CC4)C3)[nH]n2)on1 (single isomer, unassigned) [Example I-21]  19.98
22. CC(C)NC(=O)OC[C@H]1C[C@@H](c2cc(Nc3nccc4ncsc34)n[nH]2)C1 [Example I-22]  19.69
23. COCc1cc2c(Nc3cc([C@H]4C[C@@H](OC(=O)N[C@H](C)C(F)(F)F)CO4)[nH]n3)nccn2n1 [Example I-23]  19.67
24. CC(C)NC(=O)O[C@@H]1CC[C@H](c2cc(Nc3ncnc4ncsc34)n[nH]2)C1 (single isomer, unassigned) [Example I-24]  19.46
25. Cn1nc(COC(F)(F)F)cc1C(=O)Nc1cc([C@@H]2C[C@H](OC(=O)NC3(C)COC3)CO2)[nH]n1 [Example I-25]  18.78
26. COCc1cc2c(Nc3cc([C@@H]4C[C@H](Oc5nncn5C(C)(C)C)CO4)[nH]n3)nccn2n1 [Example I-26]  18.65
27. CC(C)NC(=O)OC[C@H]1C[C@@H](c2cc(NC(=O)c3cc(COC(F)(F)F)nn3C)n[nH]2)C1 [Example I-27]  18.56
28. CC(C)NC(=O)O[C@H]1CC[C@@H](c2cc(Nc3nccc4ncsc34)n[nH]2)C1 (single isomer, unassigned) [Example I-28]  18.45
29. COCc1cc2c(Nc3cc([C@H]4C[C@@H](OC(=O)NC(C)(C)C#N)CO4)[nH]n3)nccn2n1 [Example I-29]  18.45
30. Cn1nc(OCC(F)F)cc1C(=O)Nc1cc([C@H]2C[C@@H](OC(=O)NC34CC(C3)C4)CO2)[nH]n1 [Example I-30]  18.27
31. CC1(NC(=O)O[C@H]2CO[C@@H](c3cc(Nc4nccc5nccn45)n[nH]3)C2)CC1 [Example I-31]  17.88
32. CC(C)NC(=O)O[C@@H]1CO[C@H](c2cc(Nc3nccc4ncsc34)n[nH]2)C1 [Example I-32]  17.60
33. COCc1cc2c(Nc3cc([C@H]4C[C@@H](OC(=O)N[C@]5(C)CC5(F)F)CO4)[nH]n3)nccn2n1 (single isomer, unassigned) [Example I-34]  17.33
34. CCC1(NC(=O)O[C@H]2CO[C@@H](c3cc(Nc4nccn5nc(COC)cc45)n[nH]3)C2)CC1 [Example I-35]  17.20
35. C#CC1(NC(=O)O[C@H]2CO[C@@H](c3cc(Nc4nccn5nc(COC)cc45)n[nH]3)C2)CC1 [Example I-36]  16.79
36. COCc1cc2c(Nc3cc([C@H]4C[C@@H](OC(=O)NC(C)C)CO4)[nH]n3)nccn2n1 [Example I-38]  16.55
37. COCc1cc2c(Nc3cc([C@H]4C[C@@H](Oc5nncn5C5(C(F)(F)F)CC5)CO4)[nH]n3)nccn2n1 [Example I-37]  16.55
38. CC(C)n1cnnc1OC[C@H]1C[C@@H](c2cc(Nc3nccn4nccc34)n[nH]2)C1 [Example I-39]  16.17
39. COCc1cc2c(Nc3cc([C@@H]4C[C@H](Oc5nncn5C5(C)CC5)CO4)[nH]n3)nccn2n1 [Example I-40]  16.06
40. CC(C)NC(=O)O[C@H]1CO[C@@H](c2cc(Nc3nccc4ncsc34)n[nH]2)C1 [Example I-41]  15.98
41. COCc1cc2c(Nc3cc([C@H]4C[C@@H](OC(=O)NC(C)(C)C(F)(F)F)CO4)[nH]n3)nccn2n1 [Example I-42]  15.77

From patent US20240190855A1 (Relay Therapeutics, Inc., priority 2021, published 2024)
